Columns and labels:
Type in all cases: in vivo
Pulvinaria aurantii = assay: Example 11: satsuma trees treated against Pulvinaria aurantii; settings: 41 days after treatment; live animals counted, Henderson and Tilton; satsuma tree; % a.i.: buprofezin 0.025, I-4 0.0144
Description: In three replications, in each case one about 4-year-old satsuma tree of the cultivar “Nankan 20” is treated against Pulvinaria aurantii. Here, the active compound Example (I-4) (240 SC) in a tank mix with 0.2% of rapeseed oil methyl ester (500 EW) at the stated application rate is tested against the commercial standard buprofezin at the stated application rate. The application is carried out using a motor-operated knapsack sprayer. Here, each plant is treated with 400 ml of spray liquor.
(§1) Evaluation is carried out before and 41 days after the treatment by counting the live animals. The efficacy in percent is then calculated according to Henderson and Tilton.

Ceroplastes rubens = assay: Example 12: satsuma trees treated against Ceroplastes rubens; settings: 41 days after treatment; live animals counted, Henderson and Tilton; satsuma tree; % a.i.: buprofezin 0.025, I-4 0.0072
Description: In three replications, in each case one about 4-year-old satsuma tree of the cultivar “Nankan 20” is treated against Ceroplastes rubens. Here, the active compound Example (I-4) (240 SC) in a tank mix with 0.1% of rapeseed oil methyl ester (500 EW) at the stated application rate is tested against the commercial standard buprofezin (25 WP) at the stated application rate. The application is carried out using a motor-operated knapsack sprayer. Here, treatment is carried out using an application rate of 400 l of water/ha.
as §1

Saissetia oleae [1] = assay: Example 13: orange trees treated against Saissetia oleae; settings: nymphs on leaves, g a.i./ha/m crown height: buprofezin 500, I-4 72, I-8 30
Description: In three replications, in each case two about 8-year-old orange trees are treated against Saissetia oleae. Here, the active compounds Example (I-4) (240 SC) and Example (I-8) (250 SC) in a tank mix with 0.2% a.i. of rapeseed oil methyl ester (500 EW) at the stated application rate are tested against the commercial standard buprofezin in a tank mix with 0.4% a.i. of Oliocin (800 EW) at the stated application rate. The application is carried out using a motor-operated knapsack sprayer. The application rate is 3000 l of water/ha. Two treatments are carried out, at an interval of 29 days.
Evaluation is carried out 24 and 44 days after the last treatment by rating the kill of the nymphs on the leaves.

[2] = tested on: Selenaspidius articulatus; assay: Example 19: orange trees treated against Selenaspidius articulatus; settings: 100 d after treatment, on leaves, % a.i.: methidathion 0.05, I-9 0.0288, I-4 0.0144
Description: In three replications, 3-year-old orange trees of the cultivar “Pera natal” are treated against Selenaspidius articulatus. The application is carried out using a motor-operated knapsack sprayer. Here, the active compounds Example (I-9) (240 SC) and Example (I-4) (240 SC) at the stated application rate are tested against the standard methidathion (400 EC) in the stated amounts, applied once. The application rate is 3.3 l of water per tree.
Evaluation is carried out 100 days after the treatment by rating the kill on the leaves.

Orthezia praelonga = assay: Example 25: orange trees treated against Orthezia praelonga; settings: population on leaves, % a.i.: methidathion 0.05, I-4 0.0144, I-9 0.0144
Description: In two replications, two about 7-year-old orange trees of the cultivar “Pera Rio” are treated against Orthezia praelonga. Here, the active compounds Example (I-4) (240 SC) and Example (I-9) (240 SC), in a tank mix with 0.1% a.i. of Renex, are tested against the commercial standard Methidathion (400 EC), at the stated application rates. The application is carried out using a knapsack sprayer operated with pressurized air. Evaluation is carried out 6 and 16 days after the treatment by rating the kill of the population on the leaves.

Macrosiphum euphorbiae = assay: Example 43: aubergines treated against Macrosiphum euphorbiae; settings: nymphs on leaves, % a.i.: imidacloprid 0.014, I-9, I-2, I-11 0.0144
Description: In three replications, plots of a size of 10 m^2 with aubergines of the cultivar “F 100” are treated against Macrosiphum euphorbiae. The application is carried out using a knapsack sprayer operated with pressurized air. Here, the active compounds Example (I-9) (60 SC), Example (I-2) (60 SC) and Example (I-11) (60 SC) and the commercial standard imidacloprid (70 WG) are tested at the stated application rates. Three applications are carried out, at an interval of 7 or 8 days. The application rate is 1000 l of water/ha.
Evaluation is carried out 7 and 14 days after the second treatment by rating the kill of the nymphs on the leaves.

Bemisia tabaci = assay: Example 32: bell peppers treated against Bemisia tabaci; settings: larvae on leaves, % a.i.: imidacloprid 0.02, I-9, I-2, I-11 0.0144
Description: In three replications, plots of a size of 10 m^2 with bell peppers of the cultivar “Italiano” are treated against Bemisia tabaci. The application is carried out using a motor-operated knapsack sprayer. Here, the active compounds Example (I-9) (240 SC), Example (I-2) (60 SC) and Example (I-11) (60 SC) and the commercial standard imidacloprid (200 SL) are applied at the stated application rates. Three applications at an interval of 14 or 15 days are carried out, at an application rate of 1000 or 1100 l of water/ha.
Evaluation is carried out 7, 14 and 22 days after the second treatment by rating the kill of the animals (larvae) on the leaves.

Bemisia argentifolii = assay: Example 35: aubergines (F 100) treated against Bemisia argentifolii; settings: 7 d after last of three treatments, nymphs on leaves, % a.i.: imidacloprid 0.014, I-9, I-2, I-11 0.0144
Description: In three replications, plots of a size of 10 m^2 with aubergines of the cultivar “F 100” are treated against Bemisia argentifolii. The application is carried out using a knapsack sprayer operated with pressurized air. Here, the active compounds Example (I-9) (60 SC), Example (I-2) (60 SC) and Example (I-11) (60 SC) and the commercial standard imidacloprid (70 WG) are tested at the stated application rates. Three applications are carried out, at an interval or 7 or 8 days. The application rate is 1000 l of water/ha.
Evaluation is carried out 7 days after the last treatment by rating the kill of the nymphs on the leaves.

Pseudococcus citri = assay: Example 27: orange trees treated against Pseudococcus citri; settings: 56 d after last of two treatments, on fruits, % a.i.: pyriproxyfen 0.005, I-9 0.0096
Description: (§2) In three replications, orange trees of the cultivar “Navelina” are treated against Parlatoria pergandei and Pseudococcus citri. Two applications are carried out at an interval of 77 days using a motor-operated knapsack sprayer. Here, the active compound Example (I-9) (240 SC), in a tank mix with 0.1% a.i. of rapeseed oil methyl ester (500 EW), at the stated amount, is tested against the commercial standard pyriproxyfen (100 EC), at the stated amounts. The application rate is 3000 l of water/ha.
(§3) Evaluation is carried out 56 days or 73 days after the last treatment by rating the kill in percent on the fruits.

Saissetia oleae [3] = assay: Example 14: orange trees (Navelina) treated against Saissetia oleae; settings: 120 d after treatment, kill on branches, % a.i.: Dursban 0.096, I-4 0.012, I-9 0.0054, pyriproxyfen 0.005
Description: In three replications, orange trees of the cultivar “Navelina” are treated against Saissetia oleae. Here, the active compounds Example (I-4) (240 SC) and Example (I-9) (240 SC) in a tank mix with 0.1% of rapeseed oil methyl ester (500 EW) at the stated application rate are tested against the commercial standards Dursban (480 EC) and pyriproxyfen (100 EC) at the stated application rate. The application is carried out using a motor-operated knapsack sprayer. The application rate is 3200 l of water/ha.
Evaluation is carried out 120 days after the treatment by rating the kill of the animals on the branches.

Lepidosaphes beckii = assay: Example 18: citrus trees treated against Lepidosaphes beckii; settings: 140 days after treatment, larvae on fruits, g a.i./ha/m crown height: pyriproxyfen 50, I-4 48
Description: In three replications, in plots of a size of about 20 m^2, citrus trees of the cultivar “Oro Nules” are treated against Lepidosaphes beckii. The application is carried out using a high-pressure sprayer. Here, the active compound Example (I-4) (240 SC) in a tank mix with 0.1% a.i. of rapeseed oil methyl ester (500 EW) is tested against the commercial standard pyriproxyfen (100 EC), at the stated application rates. The application rate is 2500 l of water/ha.
Evaluation is carried out 140 days after the treatment by rating the kill of the larvae on the fruits.

Parlatoria pergandei = assay: Example 27 / 18a: orange trees treated against Parlatoria pergandei; settings: 73 d after last of two treatments, on fruits, % a.i.: pyriproxyfen 0.005, I-9 0.0096
Description: The evaluation for Example 18a against Parlatoria pergandei is carried out as part of the test as described in Example 27 and is listed separately in Example 27.
as §2, §3

SMILES: CC(C)N1C(=O)N(c2ccccc2)CS/C1=N\C(C)(C)C [buprofezin, reference compound]
- Effect (%) (Pulvinaria aurantii): 68%
- Effect (%) (Ceroplastes rubens): 50%
- Kill (%) 24 d (Saissetia oleae [1]; 24 d after last of two treatments): 33.5%
- Kill (%) 44 d (Saissetia oleae [1]; 44 d after last of two treatments): 50.5%

SMILES: COc1nn(CSP(=S)(OC)OC)c(=O)s1 [methidathion, reference compound]
- Kill (%) 100 d [2]: 77%
- Kill (%) 6 d (Orthezia praelonga; 6 d after treatment): 91%
- Kill (%) 16 d (Orthezia praelonga; 16 d after treatment): 61%

SMILES: CCCC(=O)OC1=C(c2cc(C)c(C)cc2C)C(=O)NC12CCC(OCC)CC2 (centres unmarked) [Example (I-11)]
- Kill (%) 7 d (Macrosiphum euphorbiae; 7 d after second treatment): 98%
- Kill (%) 14 d (Macrosiphum euphorbiae; 14 d after second treatment): 99%
- Kill (%) 7 d (Bemisia tabaci; 7 d after second treatment): 85.4%
- Kill (%) 14 d (Bemisia tabaci; 14 d after second treatment): 93.3%
- Kill (%) 22 d (Bemisia tabaci; 22 d after second treatment): 91.3%
- Kill (%) 7 d (Bemisia argentifolii): 94%

SMILES: CC(COc1ccc(Oc2ccccc2)cc1)Oc1ccccn1 (centres unmarked) [pyriproxyfen, reference compound]
- Kill (%) 56 d (Pseudococcus citri): 28.8%
- Effect (%) 120 d (Saissetia oleae [3]): 100%
- Kill (%) 140 days (Lepidosaphes beckii): 100%
- Kill (%) 73 d (Parlatoria pergandei): 97.5%
